In patent US4241184A, “Secondary alcohol dehydrogenase enzyme and use thereof” (priority 1979, dated 1980):
Where two headings read alike, the source gives them in different places.

How the values were obtained:
[1] = test system: P(40) particulate fraction of Methylosinus sp. (CRL-15, NRRL B-11,202); assay: Effect of inhibitors on propylene epoxidation and methane hydroxylation by P(40) fraction; format: biochemical; conditions: inhibitor 10^-3 M
Experimental: The oxidation of methane and propylene by particulate [(P)40 and(P)80] fractions and soluble [S(80)] fraction was measured at 30° C. by estimating the production of methanol and propylene oxide, respectively. The reaction mixtures contained in 1.0 ml: 150 mM potassium phosphate buffer, pH 7.0 containing 5 mM MgCl2, 0.6 ml; 10 μmoles NADH, and cellular fraction.
Reaction mixtures were contained in 10 ml vials at 4° C. Vials were sealed with rubber caps. The gaseous phase in the vials was removed using vacuum and then was replaced with a gas mixture of methane or propylene and oxygen at a 1:1, v/v ratio. Oxidation of other gaseous n-alkanes and n-alkenes was examined as described above. For liquid substrates, 10 μl of substrate was used directly. Vials were then incubated at 30° C. on a rotary shaker at 200 RPM.
It has been reported that the oxidation of methane by cell suspensions of methane-utilizing bacteria was inhibited by various metal-binding or metal-chelating agents (Patel et al., J. Bacteriol. 126: 1017-1019 (1976)). […] (CRL-15, NRRL B-11,202) was examined.

[2] = test system: Methylosinus trichosporium OB3b (NRRL B-11,196); assay: Effect of inhibitors on epoxidation of propylene and hydroxylation of methane, cell-containing enzyme preparation; format: cell-based; conditions: NRRLB11, inhibitor 1 mM, 1 hour at 30° C.
[3] = test system: cell suspensions of C1 -utilizers; assay: Optimal conditions and inhibition of 2-butanone production from 2-butanol by cell suspensions; format: cell-based
Excerpt: The following summarizes tests conducted on the optimal conditions for the production of methyl ketones from C3 -C6 sec. alcohols.

[4] = test system: methanol-grown Methylococcus capsulatus CRL M1 (NRRL B-11,219); assay: Effect of metal-chelating agents and other inhibitors on production of 2-butanone by cell suspensions; format: cell-based; conditions: NRRLB11, read-out: Inhibition (%) of production of 2-butanone, 1 mM
[5] = test system: cell-free particulate fractions derived from the methylotrophic microorganisms; assay: Conversion of C3-C6 n-alkanes to sec. alcohols by cell-free particulate fractions: inhibitors and electron donors; format: biochemical
Excerpt: The conditions for preparing the cell suspensions or the cell-free particulate fractions from methane-grown methylotroph microorganisms is the same as described above. […] Tables XXV and XXVI show the conversion of C3 -C6 n-alkanes to the corresponding secondary alcohols using cell suspensions and cell-free particulate fractions, respectively, of methane-grown methylotroph microorganisms.

[6] = test system: Methylococcus capsulatus (CRL Ml, NRRL B-11,219); assay: Effect of inhibitors on epoxidation of propylene and hydroxylation of methane, cell-containing enzyme preparation; format: cell-based; conditions: Methylococcus capsulatus, NRRLB11, inhibitor 1 mM, 1 hour at 30° C.
[7] = test system: Methylobacterium organophilum (CRL 26, NRRL B-11,222); assay: as above; format: cell-based; conditions: NRRLB11, inhibitor 1 mM, 1 hour at 30° C.
[8] = test system: secondary alcohol dehydrogenase; assay: Purified yeast secondary alcohol dehydrogenase: substrates, electron acceptors, inhibitors, stoichiometry; format: biochemical, Pichia sp. NRRL Y-11,328
Experimental: Large scale cultures of Pichia sp. NRRL Y-11,328 were grown with aeration at 30° C. in a 14-liter New Brunswick f fermentor in a mineral salt medium containing methanol (0.4%, v/v) as the sole carbon source. The cells (200 g., wet weight) were suspended in […] sodium phosphate buffer, pH 7.0, containing 1 mM dithiothreitol (buffer A), and crude extracts were prepared as described previously. To the crude extracts, 18 ml. of protamine sulfate solution [2% solution in 0.1 M tris (hydroxymethyl) aminomethane (tris) base] was added dropwise with continuous stirring. After standing for 30 min., the extracts were centrifuged at 20,000×g. for 60 min. The supernatant solution was fractionated with solid ammonium sulfate. Extracts were brought to 50% of saturation with respect to ammonium sulfate by addition of 313 g. of the salt per liter of extract. Precipitated proteins was removed by centrifugation, and 137 g. of ammonium sulfate was added per liter of the supernatant liquid to bring it to 70% of saturation. Material precipitating between 50 and 70% of saturation was collected by centrifugation and dissolved in buffer A. This preparation was dialyzed overnight against buffer A, and the dialyzed material was applied to a DEAE-cellulose column (5×40 cm) that had been equilibrated with buffer A. The sample was washed with 200 ml. of buffer A and eluted with 2 liters of buffer A that contained NaCl in a linear gradient running from a concentration of 0 to 0.5 M. Fractions of 15 ml. were collected. Fractions containing secondary alcohol dehydrogenase activity were pooled and were termed DEAE-cellulose eluate. The DEAE-cellulose eluate was concentrated by ammonium sulfate fractionation.
Secondary alcohol dehydrogenase activity was measured spectrophotometrically at 340 nm with a NAD^+ as an electron acceptor. The reaction mixture, in a total 3.0 ml., contained 50 mM phosphate buffer, pH 8.0, 5μ moles NAD^+, crude extracts, and subtrate. The reactions were started by addition of 100 μl of 0.1 M substrate and the rate of NAD^+ reduction was measured. Protein concentration was determined by the method of Lowry et al.
The substrate specificity of the purified secondary alcohol dehydrogenase was examined spectrophotometrically.

[9] = test system: secondary alcohol dehydrogenase (SADH); assay: Purified secondary alcohol dehydrogenase activity (formation of reduced NAD); format: biochemical, Pseudomonas sp. ATCC 21439
Experimental: Secondary alcohol dehydrogenase (SADH) from an obligate methanol utilizer, Pseudomonas sp. ATCC 21439 was purified as follows. […] 0.05 M sodium phosphate buffer, pH 7.0 with 0.5 mM dithiothretol (buffer A) and were disrupted sonically (5×1 min.). The crude extract was separated by centrifugation. The crude extract was heat-treated at 50° C. in a water bath for 10 minutes. The resulting precipitate was removed by centrifugation. To the supernatant solution, 25 ml of protamine sulfate solution (2% solution in 0.1 M Tris base) was added dropwise with continuous stirring. After standing for 30 minutes, the extract was centrifuged. The supernatant solution was fractionated with solid ammonium sulfate. The material precipitating between 30 and 60% saturation was collected and was dialized overnight against buffer A. The The dialized material was applied to a DEAE-cellulose column (3 cm by 35 cm) that had been equilibrated with buffer A. The secondary alcohol dehydrogenase activity was eluted in the void volume. This DEAE-cellulose eluate was concentrated by ammonium sulfate fractionation. Material precipitating between 30 and 50% ammonium sulfate saturation was collected by centrifugation and dialyzed overnight against A. This fraction was further washed and filtered through an Amicon unit with XM 50 membrane. The concentrated fraction (6 ml) inside the Amicon unit was applied to an Affi-Gel Blue column (0.8 cm×18 cm) which had been equilibrated with buffer A for affinity chromatography. The column was washed overnight with buffer A (0.18 ml./min.) and then was eluted with buffer A containing 5 mM NAD. Each 1 ml. fraction was collected.
The purified secondary alcohol dehydrogenase enzyme (SADH) may be used directly for converting C3 -C6 secondary alcohols to the corresponding methyl ketones by the procedures described above; however, a source of NAD^+ must be added to the reaction medium. One can determine the NAD-linked secondary alcohol dehydrogenase activity with a fluorescence spectrophotometer (Perkin Elmer, Model MPF 44A) by following the formation of reduced NAD (Ex 340 nm, Em 460 nm). The assay system (3 ml.) will typically contain: sodium phosphate buffer pH 7.0, 150 μmol; NAD 1.0 μmol; a given amount of enzyme preparation; and 20 μmol secondary alcohol. The reaction is started by the addition of secondary alcohol. One unit of SADH enzyme activity represents the reduction of one nmole NAD per minute.
The effect of metal-chelating agents and thioreagents on the activity of the purified SADH enzyme were studied. […] The possibility of ethanol or n-propanol as an inhibitor was studied.

[10] = Oxidation of methane and lower alkenes by washed cell suspensions of methane-grown methylotrophic strains; format: cell-based; conditions: methane-grown methylotrophic microorganisms
Experimental: The isolates had been maintained on agar plates under an atmosphere of methane and air having a 1:1 v/v gas ratio which had been transferred every two weeks. The gaseous phase of the inoculated flasks was then replaced with a gas mixture comprised of methane and air having a ratio of 1:1 on a v/v basis.
The cells were harvested by centrifugation at 10,000×g. at 4° C. for 30 minutes. The cell pellet was washed twice with a 0.15 M phosphate buffer at a pH of 7.0 (containing 0.002 M MgCl2). The washed cells were then suspended in a 0.15 M phosphate buffer at pH 7.0.
A 0.5 ml sample of each washed cell suspension (2 mg cells) was put into 10 ml vials at 4° C. which were sealed with a rubber cap. The gaseous phase of the vials was removed with vacuum and then was replaced with a gas mixture of the oxidative substrate (e.g., methane) and oxygen at a 1:1 v/v ratio. The vials were then incubated at 30° C. on a rotary shaker at 300 rpm. Samples of product (3 μl) were withdrawn periodically with a microsyringe and the products were analyzed by gas chromatography (ionization flame detector column).
The newly discovered and isolated microorganism strains of the present invention were each grown aerobically in the presence of methane in the manner described above. […]

[11] = test system: P(40) particulate fraction of Methylosinus sp. (CRL-15, NRRL B-11,202); assay: Oxidation of n-alkenes and n-alkanes by P(40) particulate fraction; format: biochemical; conditions: for Rate of Product Formation: substrate oxidized to its epoxide or alcohol, 30° C.
[12] = test system: cell-free extracts of strain ATCC-21439
Experimental: The reaction mixtures 3 ml (1.0 mg protein) were incubated at 30°
C. for 10 min. (exp. 1) and for 20 min. (exp. 2) in the presence of 1.0
^a Determined gas chromatographically.
^b Determined fluorescence spectrophotometrically. Endogenous
consumption of NAD was corrected.

[13] = test system: Methylobacter vinelandii (CRL M5Y NRRL B-11,218); assay: Microbiological oxidation of cyclic hydrocarbons by methane-grown washed cells; format: cell-based
Excerpt: Methylobacter vinelandii (CRL M5Y NRRL B-11,218) was aerobically grown in a methane-containing nutrient medium in the manner described in Example 1 and the methane-grown washed cells were contacted under aerobic conditions with cyclohexane, benzene and toluene.

[14] = test system: P(40) particulate fraction of Methylosinus sp. (CRL-15, NRRL B-11,202); assay: Stoichiometry of propylene epoxidation and methane hydroxylation by P(40) fraction; format: biochemical; conditions: 5.0 μmoles substrate
Experimental: The particulate P(40) fraction of Methylosinus sp. (CRL-15, NRRL B-11,202) was used to determine the stoichiometry of hydroxylation and epoxidation reactions. The stoichiometry of methane or propylene-dependant NADH oxidation, oxygen consumption and product formation was approximately 1:1:1 Table XIV. This is consistent with methane or propylene oxygenation being catalyzed by a mono-oxygenase.
^a Under identical condition of reaction, the estimation of NADH
oxidized was carried out spectrophotometrically, the estimation of oxygen
consumed was measured polarographically, and estimation of product formed
was carried out by gas chromatography.

[15] = test system: Methylosinus trichosporium OB3b (NRRL B-11,196); assay: Stoichiometry of the epoxidation of propylene by a cell-suspension; format: cell-based; conditions: 3 min., 3.1 mg. protein, 3.6 μmoles propylene
Experimental: As a comparison the stoichiometry of the epoxidation of propylene by a cell-suspension of Methylosinus trichosporium OB3b (NRRL B-11,196) was determined as follows. The reaction mixture (3.0 ml.) contained 0.05 M sodium phosphate buffer, pH 7.0 and 3.6 μmoles of propylene. The reaction was initiated by the injection of 0.1 ml. of cell-suspension (3.1 mg. protein). A correction was made for the endogenous consumption of oxygen. The amount of oxygen consumed during the reaction (3 min.) was determined polarographically with a Clark oxygen electrode. The propylene consumed and the propylene oxide formed was estimated by gas chromatography. The propylene consumed was 0.29 μmoles, the oxygen consumed was 0.30 μmoles and the propylene oxide formed was 0.28 μmoles.

[16] = read-out: % Inhibition, Epoxidation
[17] = read-out: % Inhibition, Hydroxylation

c1cnc2c(c1)ccc1cccnc12 [1,10-Phenanthroline]
% Inhibition, Methane-Hydroxylating Activity [1]: 90%
% Inhibition, Propylene-Epoxidizing Activity [1]: 93%
inhibition at 1000 µM [2, 16]: 90%
inhibition at 1000 µM [2, 17]: 92%
inhibition of production of 2-butanone from 2-butanol by cell suspensions of the strains tested [3]: inhibited
inhibition at 1000 µM [4]: 95%
inhibition of the conversion of the n-alkanes to the sec. alcohols [5]: inhibited
inhibition at 1000 µM [6, 16]: 95%
inhibition at 1000 µM [6, 17]: 95%
inhibition at 1000 µM [7, 16]: 90%
inhibition at 1000 µM [7, 17]: 90%
inhibition of secondary alcohol dehydrogenase activity [8]: strongly inhibited
% inhibition of SADH activity ([9]; purified SADH, each inhibitor 1 mM, measured spectrofluorometrically): 95%

C=CCCC [1-Pentene]
epoxide product from the substrate [10]: did not produce any detectable epoxide product
Rate of Product Formation [11]: 0 μ moles/hr/mg of protein

CCC(C)O (stereo not drawn) [2-butanol]
2-Butanol Consumed ([12]; experiment 1, 10 min.): 260 nmol
2-Butanol Consumed ([12]; experiment 2, 20 min.): 530 nmol
NAD Consumed ([12]; experiment 2, 20 min.): 540 nmol
NAD^+ Reduced [8]: 5.9 µmol
Product formed [8]: 5.7 µmol
oxidation by the purified secondary alcohol dehydrogenase [8]: catalyzed the oxidation
substrate specificity of purified SADH [9]: highest
Km ([9]; read-out: Km values): 250 µM

C1CCCCC1 [Cyclohexane]
oxidative conversion rate of cyclic hydrocarbon (cyclohexane to cyclohexanol) [13]: 1.5 μmoles/2 hr./mg. protein

C=CC [Propylene]
NADH Oxidized [14]: 5.0 µmol
O2 Consumed [14]: 4.8 µmol
Product formed [14]: 4.5 µmol
inhibition of the conversion of the n-alkanes to the sec. alcohols [5]: inhibit
Propylene Oxide Produced ([11]; substrate competition, gas phase as labelled): 4.3 μmoles/hr/mg. protein
Rate of Product Formation [11]: 4.1 μ moles/hr/mg of protein
oxygen consumed [15]: 0.30 µmol
propylene consumed [15]: 0.29 µmol
propylene oxide formed [15]: 0.28 µmol

c1ccccc1 [benzene]
oxidative conversion rate of cyclic hydrocarbon (cyclohexane to cyclohexanol) [13]: no oxidative conversion was detected

C=CCCCC [hexene-1]
epoxide product from the substrate [10]: did not produce any detectable epoxide product

Cc1ccccc1 [toluene]
oxidative conversion rate of cyclic hydrocarbon (cyclohexane to cyclohexanol) [13]: no oxidative conversion was detected
